Assay results: paper PMC9655037, “Alternation of Organ-Specific Exposure in LPS-Induced Pneumonia Mice after the Inhalation of Tetrandrine Is Governed by Metabolizing Enzyme Suppression and Lysosomal Trapping” (International Journal of Molecular Sciences, 2022)
Like-named read-outs stand apart in the source and are kept apart here.

How the values were obtained:
OATP1B1 = target: T1, OATP1B1 (Homo sapiens, UniProt Q9Y6L6); details: 5 min, 5 µM
T1 sequence (Q9Y6L6 1-691): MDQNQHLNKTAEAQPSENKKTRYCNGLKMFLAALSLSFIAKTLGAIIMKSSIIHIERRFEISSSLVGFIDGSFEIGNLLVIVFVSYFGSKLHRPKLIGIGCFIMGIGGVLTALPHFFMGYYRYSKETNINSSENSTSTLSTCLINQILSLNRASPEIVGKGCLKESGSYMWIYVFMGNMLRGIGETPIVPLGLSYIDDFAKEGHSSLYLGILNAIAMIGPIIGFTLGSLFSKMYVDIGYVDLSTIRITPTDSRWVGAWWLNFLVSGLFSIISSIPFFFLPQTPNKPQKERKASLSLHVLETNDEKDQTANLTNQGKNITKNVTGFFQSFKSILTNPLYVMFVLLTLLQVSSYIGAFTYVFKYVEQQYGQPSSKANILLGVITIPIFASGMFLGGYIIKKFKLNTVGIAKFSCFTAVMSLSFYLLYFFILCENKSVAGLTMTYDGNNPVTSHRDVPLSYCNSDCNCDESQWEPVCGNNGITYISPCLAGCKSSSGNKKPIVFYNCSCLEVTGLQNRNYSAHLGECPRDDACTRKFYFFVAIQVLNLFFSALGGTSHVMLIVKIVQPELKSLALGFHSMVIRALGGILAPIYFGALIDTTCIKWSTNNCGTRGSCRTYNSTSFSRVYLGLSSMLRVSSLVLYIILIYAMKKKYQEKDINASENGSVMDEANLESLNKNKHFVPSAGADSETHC
Procedure: Expressing OATP1B1/OATP1B3 or MOCK HEK293 cells were utilized to evaluate whether TET is a substrate of these two SLC transporters. Cell culture was performed as mentioned above. Cells were seeded on 96-well plates at the density of 0.8 × 10^5 cells/well. The culture medium was replaced with a medium containing 5 mM sodium butyrate for 24 h before the transport study to enhance the expression of transporters. For the transport assay, the DMEM media were removed and the cells were washed with pre-warmed Krebs–Henseleit buffer twice (0.1 mL/well). The second washing buffer was kept in the wells and the plate was incubated at 37 °C for 5 min before the uptake assay was initiated. […] The incubation solution was removed and the cells were washed with ice-cold transportation buffer three times (0.1 mL/well). […]
In the uptake study of TET by OATP1B1 and OATP1B3 expressing the HEK293 cell line, the uptake clearance (U) of the substrate was calculated according to Equation (5), the transporter-mediated uptake ratio (UR) was calculated by dividing the uptake clearance from transporter-expressing cells to that from the mock cells according to Equation (6), and the inhibition ratio (IR) was calculated according to Equation (7), where p represents the protein content and T is the duration of the incubation time. […]

[1] = Pharmacokinetics of TET in blood after a single i.v. administration in normal and LPS-induced ALI mice; details: male, BALB/c, mouse, in vivo, 5 mg/kg; for AUC(0-inf) / AUC(0-t) / C0 / half-life / clearance / MRT last / Vd: iv, 5 mg/kg i.v., blood; for clearance: read-out: CL (in vivo CLblood) (converted); for MRT last: read-out: MRT(0-t)
Description: Twelve male BALB/c mice were randomly divided into two groups (n = 6 for each group). […]

HEK293-MOCK cells = test: Uptake by MOCK (empty vector) HEK293 cells; details: TET 5 μM, 5 min
Procedure: Expressing OATP1B1/OATP1B3 or MOCK HEK293 cells were utilized to evaluate whether TET is a substrate of these two SLC transporters. Cell culture was performed as mentioned above. Cells were seeded on 96-well plates at the density of 0.8 × 10^5 cells/well. The culture medium was replaced with a medium containing 5 mM sodium butyrate for 24 h before the transport study to enhance the expression of transporters. For the transport assay, the DMEM media were removed and the cells were washed with pre-warmed Krebs–Henseleit buffer twice (0.1 mL/well). The second washing buffer was kept in the wells and the plate was incubated at 37 °C for 5 min before the uptake assay was initiated. […] The incubation solution was removed and the cells were washed with ice-cold transportation buffer three times (0.1 mL/well). A total of 0.1 mL pure water was added to each well to lyse the cells by repeated freezing and thawing (−196 °C–37 °C, three times). The cell lysate was collected and stored at −40 °C for LC-MS/MS analysis and protein measurement.
In the uptake study of TET by OATP1B1 and OATP1B3 expressing the HEK293 cell line, the uptake clearance (U) of the substrate was calculated according to Equation (5), the transporter-mediated uptake ratio (UR) was calculated by dividing the uptake clearance from transporter-expressing cells to that from the mock cells according to Equation (6), and the inhibition ratio (IR) was calculated according to Equation (7), where p represents the protein content and T is the duration of the incubation time. (5) U=Clysate/p×T (6) UR=U/UMOCK (7) IR=(1−Uwith inhibitor−Umock with inhibitor/Uwithout inhibitor−Umock without inhibitor)×100

[2] = Bidirectional transport in MOCK LLC-PK1 cells; details: pig
Procedure: MDR1 expressing LLC-PK1 cells or MOCK LLC-PK1 cells were utilized to identify whether P-gp is involved in the efflux transport across the membrane barrier. Cells were cultured as described above. Cells were seeded at a density of 2 × 10^4 in Millicell® 24-well cell culture plates with a 6.5 mm insert (0.4 µm polycarbonate membrane) from Corning (Kennebunk, ME, USA) 7 days before the experiments. On the day of the experiment, transepithelial electrical resistance (TEER) was measured to assess monolayer integrity. After washing the cells twice with HBSS, transport experiments in either the apical-to-basolateral direction (A-B) or the basolateral-to-apical direction (B-A) were conducted. […] After incubating the plates at 37 °C for 2 h, samples from the receiving and donor wells (50 μL) were taken simultaneously. All the samples were stored at −40 °C for LC-MS/MS analysis.
In the bidirectional transport study in LLC-PK1 cells, the following equations were used to calculate Papp values and the MDR1 efflux ratio.

**Q.** What does the source list for `COc1ccc2cc1Oc1ccc(cc1)C[C@H]1c3cc(c(OC)cc3CCN1C)Oc1c(OC)c(OC)cc3c1[C@H](C2)N(C)CC3` [TET, Tetrandrine]?
**A.** Inhibition Ratio (OATP1B1): 11.1; Uptake Ratio (OATP1B1): 1.2; increased Vz, LPS-treated vs normal mice [1]: ~ 134%; AUC(0-inf) ([1]; LPS-treated mice): 65700 ± 17500 ng·h/mL; AUC(0-t) ([1]; LPS-treated mice): 44100 ± 8460 ng·h/mL; C0 ([1]; LPS-treated mice): 2300 ± 935 ng/mL; half-life ([1]; LPS-treated mice): 93.2 ± 26.4 h; clearance ([1]; LPS-treated mice): 1.35 mL/min/kg; MRT last ([1]; LPS-treated mice): 137 ± 40.4 h; Vd ([1]; LPS-treated mice, read-out: Vss): 10.5 ± 1.77 L/kg; Vd ([1]; LPS-treated mice, read-out: Vz): 10.3 ± 1.75 L/kg; AUC(0-inf) ([1]; normal mice): 29500 ± 3790 ng·h/mL; AUC(0-t) ([1]; normal mice): 26300 ± 3420 ng·h/mL; C0 ([1]; normal mice): 2270 ± 270 ng/mL; half-life ([1]; normal mice): 30.7 ± 5.21 h; clearance ([1]; normal mice): 2.87 mL/min/kg; MRT last ([1]; normal mice): 72.7 ± 6.4 h; Vd ([1]; normal mice, read-out: Vss): 7.71 ± 2.01 L/kg; Vd ([1]; normal mice, read-out: Vz): 12.5 ± 1.63 L/kg; Uptake Clearance (HEK293-MOCK cells; MOCK (OATP1B1 set)): 131 ± 11.3 nM/min/mg Protein; Uptake Clearance (HEK293-MOCK cells; MOCK (OATP1B3 set)): 126 ± 10.9 nM/min/mg Protein; Uptake Clearance (HEK293-MOCK cells; MOCK+RIF (OATP1B1 set)): 117 ± 12.8 nM/min/mg Protein; Uptake Clearance (HEK293-MOCK cells; MOCK+RIF (OATP1B3 set)): 119 ± 8.03 nM/min/mg Protein; Papp A→B at 2 h [2]: 1.22 ± 0.07 ×10⁻⁶ cm/s; Papp B→A at 2 h [2]: 3.83 ± 0.12 ×10⁻⁶ cm/s; efflux ratio at 2 h ([2]; LLC-PK1): 3.13
